In PubChem BioAssay (NCI):
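Five compound concentrations were applied to cells in 96-well plates for 48 hours; endpoints were derived by simple linear interpolation of the resulting dose-response curve. Here, GI50 denotes the concentration required for 50% inhibition of growth. TGI is the concentration that stops growth completely.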

Key:
Experiment in all cases: growth of human tumour cells (NCI), 48 h
A549 NSCLC = test system: A549 NSCLC
SK-MEL-2 melanoma = test system: SK-MEL-2 melanoma
UO-31 renal = test system: UO-31 renal
LOX IMVI melanoma = test system: LOX IMVI melanoma
SR leukemia = test system: SR leukemia
SW-620 colon = test system: SW-620 colon
HT29 colon = test system: HT29 colon
TK-10 renal = test system: TK-10 renal
U251 CNS = test system: U251 CNS
T-47D breast = test system: T-47D breast
HS 578T breast = test system: HS 578T breast
MALME-3M melanoma = test system: MALME-3M melanoma

| SMILES | TGI (A549 NSCLC) | TGI (SK-MEL-2 melanoma) | TGI (UO-31 renal) | TGI (LOX IMVI melanoma) | TGI (SR leukemia) | TGI (SW-620 colon) | TGI (HT29 colon) | TGI (TK-10 renal) | TGI (U251 CNS) | TGI (T-47D breast) | GI50 (HS 578T breast) | TGI (HS 578T breast) | GI50 (A549 NSCLC) | GI50 (SK-MEL-2 melanoma) | GI50 (UO-31 renal) | GI50 (SW-620 colon) | GI50 (TK-10 renal) | GI50 (MALME-3M melanoma) | TGI (MALME-3M melanoma) |
| --- | --- | --- | --- | --- | --- | --- | --- | --- | --- | --- | --- | --- | --- | --- | --- | --- | --- | --- | --- |
| CSc1ncnc2c1cnn2Cc1cn(COCC(O)CO)nn1 (stereo not given) | > 100 µM | > 100 µM | > 100 µM | > 100 µM | > 100 µM | > 100 µM | > 100 µM | > 100 µM | > 100 µM | > 100 µM |  |  |  |  |  |  |  |  |  |
| O=C1c2cc3c(cc2-c2c1c1cc(F)c(F)cc1c(=O)n2C[C@H](O)CO)OCO3 | 1.12 µM | 0.625 µM | 0.337 µM |  | > 100 µM | 1.98 µM |  | 2.11 µM |  |  | 0.939 µM | > 100 µM | 0.069 µM | 0.243 µM | 0.0698 µM | 0.0431 µM | 0.335 µM | 0.196 µM | 0.916 µM |
| Cc1ccc(S(=O)(=O)N2CCc3cc(O)c([N+](=O)[O-])cc32)cc1 | > 100 µM | > 100 µM | > 100 µM | > 100 µM |  | > 100 µM |  | > 100 µM | > 100 µM | > 100 µM |  | > 100 µM |  |  |  |  |  |  | > 100 µM |
| O=c1ccn([C@@H]2C=C(CO)[C@@H](O)[C@H]2O)c(=O)[nH]1 | > 625 µM | > 625 µM | > 625 µM | > 625 µM |  | > 625 µM | > 625 µM |  | > 625 µM |  |  |  |  |  |  |  |  |  | > 625 µM |
| CCOC(=O)c1c(-c2ccc(OC)cc2)c(C#N)c(=S)n(C2OC(CO)C(O)C(O)C2O)c1C (stereo not given) | > 100 µM | > 100 µM | > 100 µM | > 100 µM | > 100 µM | > 100 µM | > 100 µM | > 100 µM | > 100 µM | > 100 µM |  |  |  |  |  |  |  |  | > 100 µM |
| COC(=O)c1ccc2cc(O)ccc2c1 | > 100 µM | > 100 µM | > 100 µM | > 100 µM | 81.9 µM | > 100 µM | > 100 µM | > 100 µM | > 100 µM | > 100 µM |  |  |  |  |  |  |  |  | > 100 µM |
| CC1=[N+]([O-])C2(CCCC2)N(O)C1(C)C | > 100 µM | > 100 µM | > 100 µM | > 100 µM |  | > 100 µM | > 100 µM | > 100 µM | > 100 µM | > 100 µM |  | > 100 µM |  |  |  |  |  |  | > 100 µM |
| CC(C)(C)[Si](C)(C)OC1CCOC1(O)c1ccccn1 (stereo not given) | > 100 µM | > 100 µM | > 100 µM | > 100 µM |  | > 100 µM | > 100 µM | > 100 µM | > 100 µM | > 100 µM |  | > 100 µM |  |  |  |  |  |  | > 100 µM |
| O=c1cccc2n1CC1CNCC2C1 (stereo not given) | > 100 µM | > 100 µM | > 100 µM | > 100 µM |  | > 100 µM | > 100 µM | > 100 µM | > 100 µM |  |  | > 100 µM |  |  |  |  |  |  | > 100 µM |
| O=C(/C=C/CC(O)(c1ccccc1)c1ccccc1)Nc1ccccc1Cl |  | > 100 µM | > 100 µM |  | > 100 µM | > 100 µM | > 100 µM | > 100 µM | > 100 µM |  |  |  |  |  |  |  |  |  | > 100 µM |
| CC(=O)OC1COC(N2c3ccccc3[C@@H]3CCc4c([nH]c5ccccc45)[C@@H]32)C(OC(C)=O)C1OC(C)=O (mixture of isomers) | > 100 µM | > 100 µM | > 100 µM |  | > 100 µM | > 100 µM | > 100 µM | > 100 µM | > 100 µM |  |  | > 100 µM |  |  |  |  |  |  | > 100 µM |
| COc1cccc(Nc2nc3c([nH]2)c(=O)n(C)c(=O)n3C)c1 | > 10 µM |  |  | > 10 µM | > 10 µM | > 10 µM | > 10 µM | > 10 µM |  | > 10 µM |  |  |  |  |  |  |  |  | > 10 µM |
| CCc1nc2c([nH]1)C(=O)c1ccccc1C2=O | > 100 µM | > 100 µM | > 100 µM |  | > 100 µM | > 100 µM | > 100 µM | > 100 µM | > 100 µM |  |  |  |  |  |  |  |  |  | 49.5 µM |
| CC(=O)N=S(NC(=O)c1ccc(C)cc1)C(Cl)(Cl)Cl (stereo not given) | > 100 µM |  | 56 µM | 80.1 µM |  | 36.3 µM | 60.6 µM | > 100 µM | 59.3 µM | > 100 µM |  | > 100 µM |  |  |  |  |  |  | 96 µM |
| Nc1cc2nc(-c3ccccc3)cn2cn1 | > 100 µM | > 100 µM | > 100 µM | > 100 µM |  | > 100 µM | > 100 µM | > 100 µM | > 100 µM | > 100 µM |  |  |  |  |  |  |  |  | 70 µM |
| Cn1c(=O)c2[nH]c(Nc3cccc(Cl)c3)nc2n(C)c1=O | > 10 µM |  |  | > 10 µM |  | > 10 µM | > 10 µM | > 10 µM |  | 8.72 µM |  |  |  |  |  |  |  |  | > 10 µM |
| COc1ccccc1Cn1c2c(c3cc(O)ccc31)C(=O)c1ccccc1C2=O | > 100 µM | > 100 µM | > 100 µM | > 100 µM | > 100 µM | > 100 µM | > 100 µM | > 100 µM | 64.9 µM |  |  | > 100 µM |  |  |  |  |  |  | > 100 µM |
| CCC1(c2ccc(OC)c(OC)c2)CCN2C(=O)C(O)CC21 (stereo not given) | > 100 µM | > 100 µM | > 100 µM | > 100 µM | > 100 µM | > 100 µM | > 100 µM | > 100 µM | > 100 µM | > 100 µM |  |  |  |  |  |  |  |  |  |
